For test [1], the system named is parental BaF3 cells. Put plainly: Proliferation of parental (untransformed) Ba/F3 cells maintained with IL3. As to conditions: Mus musculus, BaF3, parental Ba/F3 cells; read-out: Ba/F3 IC 50. The test is classed as cell-based, murine. The protocol:
(§1) Test compounds were dissolved in DMSO (10 mM) and transferred into 1.4 mL flat bottom or V-shaped Matrix tubes carrying a unique 2D matrix chip by individual compound hubs. The numbers of these chips were distinctively linked to the individual compound identification numbers. The stock solutions were stored at −20° C. if not used immediately. For the test procedure the vials were defrosted and identified by a scanner whereby a working sheet is generated that guides the subsequent working steps.
(§2) Compound dilutions were made in 384 well plates. This format enabled the assay of maximally 28 individual test compounds at 12 concentrations (single points) including 2 reference compounds. The dilution protocol included the production of pre-dilution plates, master plates and assay plates: • Compound plates: 30 μL of individual compound (10 mM) DMSO solution including standard compound were transferred into columns 1 and 13 of a 384 well plate. 20 μL of DMSO were added to the rest of the wells and the compounds were serially diluted (1:3) by transferring 10 μL from a well in column 1 or 13 to the next well in column 2 or 14 respectively and successively with the help of a Minitrack robot. • Assay plates: Identical assay plates were then prepared by adding […] each of compound dilutions of the compound plates into 384-well “assay plates”. In the following the compounds were mixed with 50 μL of assays components (cells or enzyme) and tested for their inhibitory activity.
(§3) The cell line used is the luciferase expressing Ba/F3 murine hematopoietic progenitor cell line transformed with human Tel-TrkA, Tel-TrkB or Tel-TrkC cDNAs (Ba/F3 EN A/B/C). These cells maintained in RPMI/10% fetal bovine serum (RPMI/FCS) supplemented with penicillin 50 mg/mL, streptomycin 50 mg/mL and L-glutamine […]. Untransformed Ba/F3 cells were similarly maintained with the addition 5 ng/ml of murine recombinant IL3. 50 μl of a Ba/F3 or Ba/F3 EN A/B/C cell suspension were plated in Greiner 384 well microplates (white)) at a density of 2000 cells per well. 50 nl of serially diluted test compound (10-0.0001 mM in DMSO solution) is added to each well. The cells were incubated for 48 hours at 37° C., 5% CO2. 25 μl of Bright Glo® (Promega) luciferase substrate is added to each well. The emited luminiscence is quantified using the ACQUEST™ luminescence system (Molecular Devices). IC50 values were calculated by linear regression analysis of the percentage inhibition of each compound at 12 concentrations.

For test [2], the target named is T1, full length rTrkA and mNGF (Rattus norvegicus, UniProt P35739).
T1 construct: co-expressing full length rTrkA and mNGF; expressed in transfected cells; host or cells: Ba/F3 cells
Put plainly: Inhibition of proliferation of Ba/F3 cells co-expressing full length rTrkA and mNGF (BaF3/TrkA-NFG). As to conditions: BaF3 TRKA-NGF cells, CTG readout. The test is classed as cell-based.

For test [3], the target named is T2, Tel-TrkB (Homo sapiens, UniProt Q16620).
T2 construct: dimerization domain of Tel (ETV6) transcription factor (fusion partner, human ETV6 P41212); expressed in transfected cells; host or cells: luciferase expressing Ba/F3 murine hematopoietic progenitor cells; the other entry of the earlier key: ETV6 (P41212, Transcription factor ETV6)
Description: Inhibition of proliferation of Ba/F3 cells expressing Tel-TrkB (BaF3/Tel-TrkB). The test is classed as cell-based. Conditions: Ba/F3 Tel-TrkB cells; read-out: Ba/F3 Tel-TrkB IC 50. The protocol: as §1, §2
(§4) Compounds of Formula (I) were tested for their antiproliferative effect on Ba/F3 cells expressing either Tel-TrkA, Tel-TrkB or Tel-TrkC and an additional panel of 34 selected diverse kinases activated by fusion to the dimerizing partners Bcr or Tel (Abl, A1K, BMX, EphA3, EphB2, FGFR2, FGFR3, FGFR4, FGR, FLT1, FLT3, FLT4, FMS, IGF1R, InsR, JAK1, JAK2, JAK3, KDR, Kit, Lck, Lyn, MER, MET, PDGFRb, RET, RON, Ros-1, Src, Aurora, TIE2, TYK2, Tie1, ZAP70). The antiproliferative effect of these compounds on the different cell lines and on the non transformed cells were tested at 12 different concentrations of 3-fold serially diluted compounds in 384 well plates as described above (in media lacking IL3). The IC50 values of the compounds the different cell lines were determined from dose response curves.
as §3, with “50 nl of serially diluted test compound (10-0.0001 mM in DMSO solution) is added to each well.” left out

For test [4], the target named is T3, Tel-TrkA (Homo sapiens, UniProt P04629).
T3 construct: dimerization domain of Tel (ETV6) transcription factor (fusion partner, human ETV6 P41212); expressed in transfected cells; host or cells: luciferase expressing Ba/F3 murine hematopoietic progenitor cells; the other entry of the earlier key: ETV6 (P41212, Transcription factor ETV6)
Put plainly: Inhibition of proliferation of Ba/F3 cells expressing Tel-TrkA (BaF3/Tel-TrkA, luciferase/Bright Glo readout). The test is classed as cell-based. Conditions: read-out: Ba/F3 Tel-TrkA IC 50. The protocol:
as §1, §2, §4
as §3, with “50 nl of serially diluted test compound (10-0.0001 mM in DMSO solution) is added to each well.” left out

From patent US8507488B2, “Fused nitrogen containing heterocycles and compositions thereof as kinase inhibitors” (IRM LLC, priority 2008, dated 2013) come the findings set out here.

Structures are written as SMILES. A value given as a limit tells only on which side of the number the result lay.

T2 sequence (Q16620 538-822 limits assumed): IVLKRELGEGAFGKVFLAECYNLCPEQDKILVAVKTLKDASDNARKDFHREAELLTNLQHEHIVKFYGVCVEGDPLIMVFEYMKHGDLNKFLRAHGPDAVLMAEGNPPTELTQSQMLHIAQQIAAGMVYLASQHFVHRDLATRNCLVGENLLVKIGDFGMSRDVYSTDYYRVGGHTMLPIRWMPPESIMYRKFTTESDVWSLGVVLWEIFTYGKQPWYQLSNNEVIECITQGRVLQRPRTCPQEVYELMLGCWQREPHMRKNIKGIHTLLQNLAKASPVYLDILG
T3 sequence (P04629 510-796 limits assumed): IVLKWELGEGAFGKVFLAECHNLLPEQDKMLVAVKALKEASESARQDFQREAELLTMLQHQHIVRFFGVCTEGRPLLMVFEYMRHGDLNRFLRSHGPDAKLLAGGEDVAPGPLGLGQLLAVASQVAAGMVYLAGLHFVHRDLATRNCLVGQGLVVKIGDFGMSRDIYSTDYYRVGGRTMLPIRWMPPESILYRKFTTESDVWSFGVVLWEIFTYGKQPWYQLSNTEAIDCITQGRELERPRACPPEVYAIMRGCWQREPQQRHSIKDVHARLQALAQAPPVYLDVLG
T1 sequence (P35739 33-799): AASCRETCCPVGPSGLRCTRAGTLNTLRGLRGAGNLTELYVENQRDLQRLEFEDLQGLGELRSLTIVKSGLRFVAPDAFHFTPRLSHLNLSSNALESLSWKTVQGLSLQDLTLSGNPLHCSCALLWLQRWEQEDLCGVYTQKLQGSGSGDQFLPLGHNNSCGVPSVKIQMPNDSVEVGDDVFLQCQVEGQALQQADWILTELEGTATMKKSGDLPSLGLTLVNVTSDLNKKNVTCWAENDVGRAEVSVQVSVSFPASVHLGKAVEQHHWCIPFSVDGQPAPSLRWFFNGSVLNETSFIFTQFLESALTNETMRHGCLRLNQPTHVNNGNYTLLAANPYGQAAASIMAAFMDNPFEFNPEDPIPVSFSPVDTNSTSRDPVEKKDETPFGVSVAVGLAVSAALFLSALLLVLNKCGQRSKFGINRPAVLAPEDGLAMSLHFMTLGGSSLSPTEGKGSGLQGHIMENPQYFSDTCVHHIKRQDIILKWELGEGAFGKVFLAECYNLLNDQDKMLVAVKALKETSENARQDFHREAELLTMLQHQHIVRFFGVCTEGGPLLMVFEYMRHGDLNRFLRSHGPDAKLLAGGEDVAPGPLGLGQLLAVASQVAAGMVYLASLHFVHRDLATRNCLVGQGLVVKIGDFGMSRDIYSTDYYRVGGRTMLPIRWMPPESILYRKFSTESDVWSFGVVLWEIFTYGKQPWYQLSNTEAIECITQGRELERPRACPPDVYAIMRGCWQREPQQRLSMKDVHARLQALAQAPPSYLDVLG
T1 sequence (P01139 122-241 partner): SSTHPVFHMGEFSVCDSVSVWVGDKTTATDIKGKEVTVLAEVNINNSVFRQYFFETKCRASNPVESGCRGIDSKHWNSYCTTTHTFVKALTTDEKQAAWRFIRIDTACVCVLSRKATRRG

For the molecule `COc1ncc(-c2cnc3ccc(N4CCCC4c4cccc(F)c4)nn23)s1` (centres unmarked) [Table 3-Compound 27], the figures for the IC50 in test [1], in test [3] and in test [4] were above 10000 nM, 93 nM and 140 nM, respectively. In addition, in test [2], the “BaF3 TRKA-NGF CTG IC 50” value came out at 320 nM.

As for `CC(C)(C)OC(=O)N1CCN(c2cccc(-c3cnc4ccc(N5CCOCC5c5cccc(F)c5)nn34)n2)CC1` (centres unmarked) [Table 2-Compound 16], the IC50 is above 7670 nM in test [1], 120 nM in test [3] and 100 nM in test [4]. For the same molecule, the “BaF3 TRKA-NGF CTG IC 50” value in test [2] was 140 nM.

As to `CCOC(=O)C1CCN(c2cccc(-c3cnc4ccc(N5CCOCC5c5cccc(F)c5)nn34)n2)CC1` (centres unmarked) [Table 7-Compound 17], the figures for the IC50 in test [1], in test [3] and in test [4] were above 10000 nM, 44 nM and 81 nM, respectively. The “BaF3 TRKA-NGF CTG IC 50” value in test [2] worked out at 93 nM.

On to `CC(C)c1noc(C2CCN(c3cccc(-c4cnc5ccc(N6CCOCC6c6cccc(F)c6)nn45)n3)CC2)n1` (centres unmarked) [Table 7-Compound 21], for which the IC50 was above 10000 nM in test [1], 67 nM in test [3] and 90 nM in test [4]. For the same molecule, in test [2], the “BaF3 TRKA-NGF CTG IC 50” value came to 121 nM.

`Fc1cccc(C2CCCN2c2ccc3ncc(-c4cccc(-c5cnc(N6CCOCC6)nc5)n4)n3n2)c1` (centres unmarked) [Table 7-Compound 54]: the values for the IC50 in test [1], in test [3] and in test [4] were above 10000 nM, 37 nM and 28 nM, respectively. Also, the “BaF3 TRKA-NGF CTG IC 50” value in test [2] turned out to be 41 nM.

With `Fc1cccc(C2CCCN2c2ccc3ncc(-c4csc(CN5CCNCC5)n4)n3n2)c1` (centres unmarked) [Table 3-Compound 30], the values for the IC50 in test [1], in test [3] and in test [4] were above 10000 nM, 1060 nM and 1100 nM, respectively. The “BaF3 TRKA-NGF CTG IC 50” value in test [2] amounted to 1340 nM.

Turning to `CN(C)CCNC(=O)C1CCN(c2cccc(-c3cnc4ccc(N5CCCC5c5cccc(F)c5)nn34)n2)CC1` (centres unmarked) [Table 7-Compound 115], the IC50 in test [1] was 4840 nM; in test [3] it was 14 nM; in test [4] it was 14 nM. Besides, the “BaF3 TRKA-NGF CTG IC 50” value in test [2] came out at 16 nM.

As for `CNC(=O)OC1CCN(c2cccc(-c3cnc4ccc(N5CCC[C@@H]5c5cccc(F)c5)nn34)n2)CC1` [Table 7-Compound 185], the IC50 in test [1] was above 11000 nM; in test [3], 70 nM; in test [4], 64 nM. The “BaF3 TRKA-NGF CTG IC 50” value in test [2] worked out at 119 nM.

On to `Fc1cccc(C2COCCN2c2ccc3ncc(-c4ccc(CN5CCOCC5)cn4)n3n2)c1` (centres unmarked) [Table 2-Compound 20], for which the IC50 in test [1] was above 10000 nM; in test [3], 390 nM; in test [4], 390 nM. The “BaF3 TRKA-NGF CTG IC 50” value in test [2] was 280 nM.

Take `CCN(CC)S(=O)(=O)N1CCN(c2cccc(-c3cnc4ccc(N5CCC[C@@H]5c5cccc(F)c5)nn34)n2)CC1` [Table 7-Compound 231]: the IC50 in test [1] is above 11000 nM; in test [3], 28 nM; in test [4], 23 nM. Also, the “BaF3 TRKA-NGF CTG IC 50” value in test [2] was 54 nM.

For the molecule `Fc1cccc(C2CCCN2c2ccc3ncc(-c4cccc(C5OCCO5)n4)n3n2)c1` (centres unmarked) [Table 7-Compound 18], the values for the IC50 in test [1], in test [3] and in test [4] were above 10000 nM, 4.8 nM and 47 nM, respectively. The “BaF3 TRKA-NGF CTG IC 50” value in test [2] was found to be 64 nM.

Regarding `OCC1CCCN(c2cccc(-c3cnc4ccc(N5CCCC5c5cccc(F)c5)nn34)n2)C1` (centres unmarked) [Table 7-Compound 98], the IC50 in test [1] was above 11000 nM; in test [3] it was 9 nM; in test [4] it was 6 nM. Further, in test [2], the “BaF3 TRKA-NGF CTG IC 50” value turned out to be 13 nM.

For `O=C(Nc1cnc(-c2cnc3ccc(N4CCCC4c4cccc(F)c4)nn23)cn1)C1CC1` (centres unmarked) [Table 3-Compound 41], the IC50 was 200 nM in test [1], 210 nM in test [3] and 200 nM in test [4]. The “BaF3 TRKA-NGF CTG IC 50” value in test [2] came out at 110 nM.

Regarding `OCCN1CCN(c2cccc(-c3cnc4ccc(N5CCCC5c5cccc(F)c5)nn34)n2)CC1` (centres unmarked) [Table 7-Compound 100], the IC50 came to 4380 nM in test [1], 2 nM in test [3] and 2 nM in test [4]. For the same molecule, the “BaF3 TRKA-NGF CTG IC 50” value in test [2] is 3 nM.

Turning to `O=C(C1CCN(c2cccc(-c3cnc4ccc(N5CCOCC5c5cccc(F)c5)nn34)n2)CC1)N1CCC(O)C1` (centres unmarked) [Table 7-Compound 26], the figures for the IC50 in test [1], in test [3] and in test [4] were above 10000 nM, 7.5 nM and 7.7 nM, respectively. The “BaF3 TRKA-NGF CTG IC 50” value in test [2] worked out at 12 nM.

In the case of `Fc1ccc(F)c(C2CCCN2c2ccc3ncn(-c4cccc(-c5ncc[nH]5)c4)c3n2)c1` (centres unmarked) [Table 1-Compound 4], the IC50 turned out to be 790 nM in test [3] and 1600 nM in test [4].

For `O=C(COCc1ccccc1)N1CCN(c2cccc(-c3cnc4ccc(N5CCC[C@@H]5c5cccc(F)c5)nn34)n2)CC1` [Table 7-Compound 191], the IC50 in test [1] is above 9560 nM; in test [3] it was 12 nM; in test [4], 14 nM. Further, the “BaF3 TRKA-NGF CTG IC 50” value in test [2] was 16 nM.

As for `Fc1cccc(C2CCCN2c2ccc3ncc(-c4cccc(-c5cnco5)n4)n3n2)c1` (centres unmarked) [Table 7-Compound 20], the values for the IC50 in test [1], in test [3] and in test [4] were above 10000 nM, 1.6 nM and 1.8 nM, respectively. Also, in test [2], the “BaF3 TRKA-NGF CTG IC 50” value stood at 3.6 nM.

As to `C=CC1(O)CCN(c2cccc(-c3cnc4ccc(N5CCC[C@@H]5c5cccc(F)c5)nn34)n2)CC1` [Table 7-Compound 238], the results for the IC50 in test [1], in test [3] and in test [4] were above 11000 nM, 25 nM and 17 nM, respectively. Further, in test [2], the “BaF3 TRKA-NGF CTG IC 50” value was 35 nM.

Turning to `CN(C)c1nccc(-c2cccc(-c3cnc4ccc(N5CCCC5c5cccc(F)c5)nn34)n2)n1` (centres unmarked) [Table 7-Compound 58], the IC50 in test [1] is above 10000 nM; in test [3] it was 150 nM; in test [4] it was 115 nM. Further, in test [2], the “BaF3 TRKA-NGF CTG IC 50” value came to 210 nM.

Regarding `OCCC1CCN(c2cccc(-c3cnc4ccc(N5CCOCC5c5cccc(F)c5)nn34)n2)CC1` (centres unmarked) [Table 2-Compound 23], the IC50 in test [1] was above 10000 nM; in test [3] it was 24 nM; in test [4], 10 nM. The “BaF3 TRKA-NGF CTG IC 50” value in test [2] was 12 nM.

As to `O=C(NOCC1CC1)C1CCN(c2cccc(-c3cnc4ccc(N5CCOCC5c5cccc(F)c5)nn34)n2)CC1` (centres unmarked) [Table 7-Compound 22], the IC50 in test [1] was above 10000 nM; in test [3], 23 nM; in test [4], 43 nM. Moreover, the “BaF3 TRKA-NGF CTG IC 50” value in test [2] turned out to be 35 nM.
